Measured values as given in patent publication US5053416A, “Derivatives of 1,2,5,6-tetrahydropyridine substituted by a thiazolyl or oxazolyl radical, their use as medicaments and compositions containing them” (Roussel Uclaf, priority 1988, dated 1991).
Where two headings read alike, the source gives them in different places.

Tests used:
[1] = test system: isolated ileum of a guinea-pig; assay: Test on the isolated ileum of a guinea-pig (contraction, agonist activity); conditions: Cavia porcellus, read-out: pD2 (converted)
Experimental: Fragments of the ileum of guinea-pigs killed by decapitation are removed. […] The contractions caused by the products are recorded using a sensor connected to a polygraph. The products under test are added, at concentrations comprised between 1.10^-3 M and 1.10^-8 M/l.
The products presenting a contracting effect are tested vis-a-vis atropine and hexamethonium to establish if the activity is of "muscarinic" or "nicotinic" type.
The possible antagonist activity of the products is tested vis-a-vis acetylcholine.
The agonist activity is expressed in pD2 (negative logarithm of the dose which produces 50% of the maximum effect).

[2] = test system: male mice (CD1 Charles Rivers); assay: Hypothermic activity (rectal body temperature); type: in vivo; conditions: Mus musculus; for ED (-1 C): read-out: Effective dose (-1° C.) O.R.; for ED (1 C fall in body temperature): sc, read-out: Effective dose (-1° C.) SC.R.
Experimental: The test is carried out on male mice (CD1 Charles Rivers) weighing 25 to 30 g, without food for 6 hours.
The body temperature is noted by means of a thermocouple placed about 1.5 cm inside the rectum and connected to an electric temperature recorder.
The products are administered by oral or sub-cutaneous route and the temperatures are noted at 0 and 30 minutes, one hour, 2 hours and 2 hours 30 minutes after treatment.
The degree of hypothermia is evaluated as the difference between the treated animals and the controls and the dose necessary to reduce the body temperature by 1° C. is determined.

[3] = test system: male mice (CD1 Charles Rivers); assay: Diarrhoeic activity, oral; conditions: for ED50: Mus musculus, po, read-out: DE50
Experimental: The test is carried out on male mice (CD1 Charles Rivers) weighing 25 to 30 g, without food for 6 hours. The product at 5% in methocel is administered by oral route, by means of an oesophagus probe.
Control animals receive only the excipient.
The sheets of absorbent paper are changed after each observation.
1: slightly soft faeces with or without moist circle,
2: slightly soft faeces with presence of a well-defined moist circle,
3: soft faeces with presence of a large moist circle,
4: faeces without consistency with presence of a very large moist circle.

in vivo = conditions: mouse, male mice, oral route, mortality during 7 days following treatment
Experimental: The test is carried out on male mice (CD1 Charles Rivers) of 22 to 24 g, without food for 16 hours. […] The mortality is noted during the 7 days following treatment.

[4] = negative logarithm of the dose which produces 50% of the maximum effect, Tyrode's solution at 37° C.
[5] = sub-cutaneous route, dose necessary to reduce the body temperature by 1° C.
[6] = oral route, dose necessary to reduce the body temperature by 1° C.

| Structure (SMILES) | EC50 [1] [nM] | ED (-1 C) ([2]; po) [mg/kg] | ED (1 C fall in body temperature) [2] [mg/kg] | DE50 ([3]; male mice, oral route, dose which causes diarrhoea in 50% of the animals) [mg/kg] | LD50 at 168 h (in vivo) [mg/kg] | EC50 [1, 4] [nM] | ED (1 C fall in body temperature) [2, 5] [mg/kg] | ED (-1 C) [2, 6] [mg/kg] | ED50 [3] [mg/kg] |
| --- | --- | --- | --- | --- | --- | --- | --- | --- | --- |
| COC(=O)C1=CCCN(C)C1 [Aerocoline, HBr, reference compound] | 331 | 194 | 3 | 35 | – | – | – | – | – |
| Cc1coc(C2=CCCNC2)n1.Cl [Example 2, 3-(4-methyloxazol-2-yl)-1,2,5,6-tetrahydropyridine hydrochloride] | – | – | – | – | 125 | 1070 | 1.7 | 2.6 | 3 |
| C1=C(c2ncco2)CNCC1.Cl [Example 6, 3-(oxazol-2-yl)-1,2,5,6-tetrahydropyridine hydrochloride] | – | – | – | – | 200 | 1950 | 3.2 | 3.2 | 15 |
| Cc1cnc(C2=CCCNC2)o1.Cl [Example 8, 3-(5-methyloxazol-2-yl)-1,2,5,6-tetrahydropyridine hydrochloride] | – | – | – | – | 500 | 5890 | 25 | 24 | – |
| ON1CCC=C(c2ncco2)C1 [Example 10, 1-hydroxy-3-(oxazol-2-yl)-1,2,5,6-tetrahydropyridine] | – | – | – | – | 300 | > 100000 | 4.1 | 4.2 | 10 |
